Results published in patent publication US11351178B2, “Selective HDAC6 inhibitors” (ITALFARMACO S.P.A., priority 2017, dated 2022).

biological target: T1, recombinant human HDAC6 (Homo sapiens, UniProt Q9UBN7); assay: Enzymatic screening on recombinant human HDAC6; type: biochemical; details: Table 2; read-out: HDAC6 IC50
T1 sequence (Q9UBN7 1-1215): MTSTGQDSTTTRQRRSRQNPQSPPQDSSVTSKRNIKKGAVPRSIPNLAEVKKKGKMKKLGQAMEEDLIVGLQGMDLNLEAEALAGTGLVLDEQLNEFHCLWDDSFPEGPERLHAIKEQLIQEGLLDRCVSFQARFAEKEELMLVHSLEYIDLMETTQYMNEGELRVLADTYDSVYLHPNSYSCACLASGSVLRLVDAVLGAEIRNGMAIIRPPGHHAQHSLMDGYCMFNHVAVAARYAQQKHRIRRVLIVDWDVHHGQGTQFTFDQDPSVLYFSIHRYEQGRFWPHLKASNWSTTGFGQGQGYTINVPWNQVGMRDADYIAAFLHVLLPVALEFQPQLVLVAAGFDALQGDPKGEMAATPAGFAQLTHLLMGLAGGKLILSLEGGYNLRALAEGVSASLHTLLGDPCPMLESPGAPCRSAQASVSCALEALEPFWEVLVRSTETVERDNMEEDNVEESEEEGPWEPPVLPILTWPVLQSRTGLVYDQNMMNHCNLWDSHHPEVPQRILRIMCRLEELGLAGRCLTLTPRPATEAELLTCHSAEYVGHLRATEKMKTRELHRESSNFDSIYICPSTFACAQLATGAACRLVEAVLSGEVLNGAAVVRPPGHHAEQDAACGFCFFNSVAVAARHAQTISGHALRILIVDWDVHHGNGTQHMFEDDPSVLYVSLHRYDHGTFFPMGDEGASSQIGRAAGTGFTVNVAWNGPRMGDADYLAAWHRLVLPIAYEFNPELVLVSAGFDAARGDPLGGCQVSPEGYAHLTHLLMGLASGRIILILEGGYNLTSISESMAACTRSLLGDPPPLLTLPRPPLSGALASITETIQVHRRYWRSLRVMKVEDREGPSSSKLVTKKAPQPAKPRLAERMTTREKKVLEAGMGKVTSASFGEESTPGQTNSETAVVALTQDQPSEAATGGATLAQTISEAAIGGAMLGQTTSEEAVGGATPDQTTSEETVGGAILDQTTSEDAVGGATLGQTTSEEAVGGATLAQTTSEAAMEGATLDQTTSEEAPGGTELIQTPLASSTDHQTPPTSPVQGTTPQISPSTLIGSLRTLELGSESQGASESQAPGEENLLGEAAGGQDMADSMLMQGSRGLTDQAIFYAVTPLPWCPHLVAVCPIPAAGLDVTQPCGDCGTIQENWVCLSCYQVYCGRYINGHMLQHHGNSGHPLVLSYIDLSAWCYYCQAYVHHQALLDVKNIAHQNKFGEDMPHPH
Protocol: Enzymatic activity on recombinant human HDAC6 and HDAC3 was evaluated (Table 2) for each synthesized compound.
After a period of incubation at 30° C. (incubation times vary for different isoforms and are shown in table 1) 25 μL of solution containing the substrate were added. As substrate, FLUOR DE LYS® deacetylase substrate (Enzo Life Sciences, cat #BML-K1104, FdL), FLUOR DE LYS®-Green substrate (Enzo Life Sciences, cat #BML-K1572 FdL_G) and trifluoroacetyl-L-lysine (Tfal)-2× concentrated solution in 25 mM Tris-HCl, pH 8, 130 mM NaCl 0.05% Tween-20 10% glycerol) were used. Following a reaction period at 30° C.

SMILES | IC50 [nM]
COc1ccc(CCC(=O)N[C@@H](Cc2cscn2)c2nc(Cc3ccc(C(=O)NO)cc3)no2)cc1OC [comp. 21, 3-(3,4-dimethoxyphenyl)-N-[(1S)-1-[3-[[4-(hydroxycarbamoyl)phenyl]methyl]-1,2,4-oxadiazol-5-yl]-2-thiazol-4-yl-ethyl]propanamide] | 116
COc1ccc(Cc2nnc(-c3ccc(C(=O)NO)cc3)o2)cc1OC [comp. 26, 4-[5-[(3,4-dimethoxyphenyl)methyl]-1,3,4-oxadiazol-2-yl]benzenecarbohydroxamic acid] | 258
O=C(NO)c1ccc(Cn2nnc(-c3ccc(Cl)s3)n2)cc1 [comp. 32, 4-[[5-(5-chloro-2-thienyl)tetrazol-2-yl]methyl]benzenecarbohydroxamic acid] | 6
Cc1ccc(-c2nnn(Cc3ccc(C(=O)NO)cc3)n2)s1 [comp. 41, 4-[[5-(5-methyl-2-thienyl)tetrazol-2-yl]methyl]benzenecarbohydroxamic acid] | 4
O=C(NO)c1ccc(Cn2nnc(-c3scc4c3OCCO4)n2)cc1 [comp. 43, 4-[[5-(2,3-dihydrothieno[3,4-b][1,4]dioxin-5-yl)tetrazol-2-yl]methyl]benzenecarbohydroxamic acid] | 3
N[C@@H](Cc1cscn1)c1nc(Cc2ccc(C(=O)NO)cc2)no1 [comp. 48, (S)-4-((5-(1-amino-2-(thiazol-4-yl)ethyl)-1,2,4-oxadiazol-3-yl)methyl)-N-hydroxybenzamide 2,2,2-trifluoroacetate] | 257
O=C(NO)c1ccc(Nc2nnc(-c3cccc(S(=O)(=O)N4CCCC4)c3)o2)cc1 [comp. 63, 4-[[5-(3-pyrrolidin-1-ylsulfonylphenyl)-1,3,4-oxadiazol-2-yl]amino]benzenecarbohydroxamic acid] | 682
O=C(NO)c1ccc(Cc2nnc(-c3cccc(S(=O)(=O)N4CCOCC4)c3)o2)cc1 [comp. 64, 4-[[5-(3-morpholinosulfonylphenyl)-1,3,4-oxadiazol-2-yl]methyl]benzenecarbohydroxamic acid] | 13

More lines, now with the values ahead:

IC50 [nM] | SMILES
56 | O=C(NO)c1ccc(Sc2nnc(-c3ccccc3)n2-c2ccccc2)cc1 [comp. 24, 4-[(4,5-diphenyl-1,2,4-triazol-3-yl)sulfanyl]benzenecarbohydroxamic acid]
77 | O=C(NO)c1ccc(Sc2nnc(Cc3ccccc3)n2-c2ccc(F)cc2)cc1 [comp. 27, 4-[[5-benzyl-4-(4-fluorophenyl)-1,2,4-triazol-3-yl]sulfanyl]benzenecarbohydroxamic acid;2,2,2-trifluoroacetic acid]
7 | O=C(NO)c1ccc(Cn2nnc(-c3ccc(F)cc3)n2)cc1 [comp. 34, 4-[[5-(4-fluorophenyl)tetrazol-2-yl]methyl]benzenecarbohydroxamic acid]
5 | COc1ccc(-c2nnn(Cc3ccc(C(=O)NO)cc3)n2)cc1 [comp. 35, 4-[[5-(4-methoxyphenyl)tetrazol-2-yl]methyl]benzenecarbohydroxamic acid]
5 | O=C(NO)c1ccc(Cn2nnc(-c3ccccc3F)n2)cc1 [comp. 46, 4-[[5-(2-fluorophenyl)tetrazol-2-yl]methyl]benzenecarbohydroxamic acid]
368 | O=C(NO)c1ccc(Cc2nc(-c3ccc(Cl)cc3)nn2Cc2ccccc2)cc1 [comp. 51, 4-[[2-benzyl-5-(4-chlorophenyl)-1,2,4-triazol-3-yl]methyl]benzenecarbohydroxamic acid]
344 | O=C(NO)c1ccc(Cc2nc(-c3cccs3)nn2-c2ccccn2)cc1 [comp. 52, 4-[[2-(2-pyridyl)-5-(2-thienyl)-1,2,4-triazol-3-yl]methyl]benzenecarbohydroxamic acid]
333 | COc1ccccc1-n1nc(-c2cccs2)nc1Cc1ccc(C(=O)NO)cc1 [comp. 53, 4-[[2-(2-methoxyphenyl)-5-(2-thienyl)-1,2,4-triazol-3-yl]methyl]benzenecarbohydroxamic acid]
136 | O=C(NO)c1ccc(Nc2nnc(-c3ccccc3)o2)cc1 [comp. 60, 4-[(5-phenyl-1,3,4-oxadiazol-2-yl)amino]benzenecarbohydroxamic acid]
